Results: patent US6716836B2, “Non-nucleoside reverse transcriptase inhibitors” (Boehringer Ingelheim (Canada) Ltd., priority 2001, dated 2004)
pEC50, pIC50: −log10 of the molar value.

Tests used:
HIV-1 RT wild type (WT) = molecular target: T1, HIV-1 RT wild type (WT) (Human immunodeficiency virus type 1 group M subtype B, UniProt P04585); test: Reverse Transcriptase (RT) assay, wild type enzyme; format: biochemical
T1 construct: Heterodimeric RT was eluted using a descending gradient; made in house; host or cells: E. coli
Excerpt: (§1) Among the enzymes for which Human Immunodeficiency Virus (HIV-1) encodes is a reverse transcriptase (1), so-named because it transcribes a DNA copy from an RNA template. This activity can be quantitatively measured in a cell-free enzyme assay, which has been previously described (2), and is based upon the observation that reverse transcriptase is able to use a synthetic template poly r(C) primed with oligo d(G) to transcribe a radio-labelled, acid-precipitable DNA strand utilising ^3H-dGTP as a substrate. The assay described below utilises the wild type (WT) enzyme, which is the predominant form of the enzyme observed with patients infected with HIV-1. Utilisation of mutant RT enzymes (for example, Y181C, prepared by site-directed mutagenesis in which the tyrosine residue at codon 181 has been replaced by a cysteine residue, or the mutants K103N, V106A and Y188C) and analogous assay conditions allows compounds to be evaluated for their effectiveness at inhibiting the mutant enzymes.
(§2) The HIV-1 RT expression clone, pKRT2, was obtained from Yale University (3). An overnight culture, grown in 2×YT medium (37° C., 225 rpm) (4), supplemented with 100 μg/mL ampicillin for positive selection was used to inoculate the 2×YT medium. The culture was incubated (37° C., 225 rpm) until it reached an OD600 of 0.6-0.9. At that time, the repressor inhibitor IPTG (isopropyl P-D-thiogalactopyranoside) was added to 0.5 mM, and the mixture was incubated for an additional 2 hours.
(§3) Purification of recombinant reverse transcriptase was performed using a combination of methods previously described (5). This procedure is summarised briefly as follows: E. Coli containing RT-1 wt or RT-1 (Y181 C) were suspended in 50 mM MES, pH 6.0 containing 10% glycerol, lysed in a French press, centrifuged, and the supernates discarded. Lysate pellets were extracted with buffer A (50 mM MES, pH 6.0, 100 mM KCl, 50 mM KPi, 10% glycerol, 0.02% hexyl-β-glucoside), and re-centrifuged; nucleic acid in supernates was precipitated with 0.1% polyethylenimine. […] Bound RT was eluted with a gradient of 0 to 1.0M
(§4) (NH4)2 SO4 in buffer B. Heparin-Sepharose fractions containing RT were concentrated (Amicon YM-30 membrane), combined with equal volumes of 2.0M (NH4)2SO4 in buffer B and injected onto a 21.5×150 mm TSK Phenyl-5PW HIC HPLC column (Phenomenex). Heterodimeric RT was eluted using a descending gradient of 1.0M to 0M (NH4)2SO4 in buffer B, concentrated, and stored at 4° C.
(§5) The 2.4× concentrated stock reaction mixture was aliquoted and stored at −20° C. The mixture is stable and can be thawed for use in each assay. This enzyme assay has been adapted to a 96 well microtiter plate system, and has been previously described (6). Tris buffer (50 mM, pH 7.8), vehicle (solvent diluted to match the compound dilution), or compounds in vehicle were dispensed into 96-well microtiter plates (10 μL/well; 3 wells/compound). The HIV-1 RT enzyme was thawed, diluted in 50 mM Tris pH 7.8 containing 0.05% Chaps to give 1.5 nM enzyme and 25 μL were dispensed per well. Ten μL of 0.5M EDTA were added to the first three wells of the microtiter plate. EDTA chelates the Mg^2+ present and prevents reverse transcription. This group served as background polymerisation, which was subtracted, from all other groups. Twenty-five μl of the 2.4× reaction mixture was added to all wells and the assay was allowed to incubate at room temperature for 30 minutes. The assay was terminated by precipitating the DNA in each well with 60 μL of sodium pyrophosphate (2% w/v) in 10% trichloroacetic acid (TCA) (10% w/v). The microtiter plate was incubated for 15 minutes at 4° C. and the precipitate was harvested onto #30 glass fibre paper (Schleicher & Schuell) using a Tomtech 96-well harvester. The filters were dried, placed in plastic bags with Betaplate scintillation cocktail (Pharmacia/LKB) and counted in the Betaplate counter (Pharmacia/LKB).
(§6) The calculation for percent inhibition is as follows: [formula] […]

[1] = molecular target: T2, HIV-1 RT double mutant K103N/Y181C (Human immunodeficiency virus type 1 group M subtype B, UniProt P04585, K690N/Y768C); test: Reverse Transcriptase (RT) assay, double mutant enzyme; format: biochemical
T2 construct: Heterodimeric RT was eluted using a descending gradient; made in house; host or cells: E. coli (inferred; the text describes only wild type and Y181C preparations)
Excerpt: as §1, §2, §3, §4, §5, §6

[2] = tested on: HIV replication in T-lymphocytes, virus coding for wild type enzyme; test: ELISA (p24) assay for activity in cell culture, wild type virus; format: cell-based; conditions: Human immunodeficiency virus 1, T-lymphocyte, read-out: EC50 WT RT
Protocol: (§7) ELISA Assay for Assessment of Activity in Cell Culture
(§8) Compounds of the invention were tested for their ability to inhibit HIV replication in cell culture. Viruses coding for Wild type and mutant enzymes were used. T-lymphocytes were infected with the virus, infected cells were incubated in the presence of varying amounts of compounds of the invention, and an ELISA assay for the viral protein p24 was used to quantify viral replication. Table 9 lists the results as EC50 (nM).

[3] = tested on: HIV replication in T-lymphocytes, virus coding for mutant enzyme K103N/Y181C; test: ELISA (p24) assay for activity in cell culture, mutant virus; format: cell-based; conditions: Human immunodeficiency virus 1, T-lymphocyte, read-out: EC50 K103N/Y181C
Protocol: as §7, §8

In the case of `CCN1c2ncc(CCOc3cccc4c3CCS(=O)(=O)N4CCN3CCOCC3)cc2C(=O)N(C)c2cccnc21` [Compound 617], the pIC50 (HIV-1 RT wild type (WT)) was > 7.00, the pIC50 [1] was > 7.00 and the pEC50 [2] was > 7.00. The pEC50 [3] was > 7.00.

For `CCN1c2ncc(CCOc3cccc4c3CCS(=O)(=O)N4Cc3ccncc3)cc2C(=O)N(C)c2cccnc21` [Compound 621], the pIC50 (HIV-1 RT wild type (WT)) was > 7.00, the pIC50 [1] was > 7.00 and the pEC50 [2] was > 7.00. For the same molecule, the pEC50 [3] was > 7.00.

With `CCN1c2ncc(CCOc3cccc4c3CCS(=O)(=O)N4CCCC(=O)O)cc2C(=O)N(C)c2cccnc21` [Compound 625] the pIC50 (HIV-1 RT wild type (WT)) was > 7.00, the pIC50 [1] was > 7.00 and the pEC50 [2] was > 7.00. For the same molecule, the pEC50 [3] was > 7.00.

In the case of `CCOC(=O)CCCN1c2cccc(OCCc3cnc4c(c3)C(=O)N(C)c3cccnc3N4CC)c2CCS1(=O)=O` [Compound 628], the pIC50 (HIV-1 RT wild type (WT)) was > 7.00, the pIC50 [1] was > 7.00 and the pEC50 [2] was > 7.00. For the same molecule, the pEC50 [3] was > 7.00.

In the case of `CCN1c2ncc(CCOc3cccc4c3CCS(=O)(=O)N4Cc3cccnc3)cc2C(=O)N(C)c2cccnc21` [Compound 629], the pIC50 (HIV-1 RT wild type (WT)) was > 7.00, the pIC50 [1] was > 7.00 and the pEC50 [2] was > 7.00. For the same molecule, the pEC50 [3] was > 7.00.

With `CCN1c2ncc(CCOc3cccc4c3CCS(=O)(=O)N4CCCS(N)(=O)=O)cc2C(=O)N(C)c2cccnc21` [Compound 630] the pIC50 (HIV-1 RT wild type (WT)) was > 7.00, the pIC50 [1] was > 7.00 and the pEC50 [2] was > 7.00. For the same molecule, the pEC50 [3] was > 7.00.

`CCN1c2ncc(CCOc3cccc4c3CCS(=O)(=O)N4CC(=O)NS(C)(=O)=O)cc2C(=O)N(C)c2cccnc21` [Compound 631] was tested, and the pIC50 (HIV-1 RT wild type (WT)) was > 7.00, the pIC50 [1] was > 7.00 and the pEC50 [2] was 6.00 to 7.00. It also gave a pEC50 [3] of 6.00 to 7.00.

With `CCN1c2ncc(CCOc3cccc4c3CCS(=O)(=O)N4CCCC(=O)NN)cc2C(=O)N(C)c2cccnc21` [Compound 636] the pIC50 (HIV-1 RT wild type (WT)) was > 7.00, the pIC50 [1] was > 7.00 and the pEC50 [2] was > 7.00. The pEC50 [3] was > 7.00.

With `CCN1c2ncc(CCOc3cccc4c3CCS(=O)(=O)N4CC(=O)NC(C)(C)C(=O)O)cc2C(=O)N(C)c2cccnc21` [Compound 637] the pIC50 (HIV-1 RT wild type (WT)) was > 7.00, the pIC50 [1] was > 7.00 and the pEC50 [2] was > 7.00. For the same molecule, the pEC50 [3] was > 7.00.

In the case of `CCN1c2ncc(CCOc3cccc4c3CCS(=O)(=O)N4CC(=O)NC3(C(=O)O)CC3)cc2C(=O)N(C)c2cccnc21` [Compound 638], the pIC50 (HIV-1 RT wild type (WT)) was > 7.00, the pIC50 [1] was > 7.00 and the pEC50 [2] was > 7.00. The pEC50 [3] was > 7.00.

With `CCN1c2ncc(CCOc3cccc4c3CCS(=O)(=O)N4CCOC(N)=O)cc2C(=O)N(C)c2cccnc21` [Compound 639] the pIC50 (HIV-1 RT wild type (WT)) was > 7.00, the pIC50 [1] was > 7.00 and the pEC50 [2] was > 7.00. The pEC50 [3] was > 7.00.

`CCN1c2ncc(CCOc3cccc4c3CCS(=O)(=O)N4CCCC(=O)NNCC(F)(F)F)cc2C(=O)N(C)c2cccnc21` [Compound 640] was tested, and the pIC50 (HIV-1 RT wild type (WT)) was > 7.00, the pIC50 [1] was > 7.00 and the pEC50 [2] was > 7.00. The pEC50 [3] was > 7.00.

With `CCN1c2ncc(CCOc3cccc4c3CCS(=O)(=O)N4CC(=O)NC(C)(C)C(=O)NN)cc2C(=O)N(C)c2cccnc21` [Compound 641] the pIC50 (HIV-1 RT wild type (WT)) was > 7.00, the pIC50 [1] was > 7.00 and the pEC50 [2] was > 7.00. The pEC50 [3] was > 7.00.

For `CCN1c2ncc(CCOc3cccc4c3CCN(CCCC(=O)O)S4(=O)=O)cc2C(=O)N(C)c2cccnc21` [Compound 713], the pIC50 (HIV-1 RT wild type (WT)) was > 7.00, the pIC50 [1] was > 7.00 and the pEC50 [2] was > 7.00. For the same molecule, the pEC50 [3] was > 7.00.

`CCN1c2ncc(CCOc3cccc4c3CCN(CCCC(=O)NN)S4(=O)=O)cc2C(=O)N(C)c2cccnc21` [Compound 714] was tested, and the pIC50 (HIV-1 RT wild type (WT)) was > 7.00, the pIC50 [1] was > 7.00 and the pEC50 [2] was > 7.00. For the same molecule, the pEC50 [3] was > 7.00.

In the case of `CCN1c2ncc(CCOc3cccc4c3C=CS(=O)(=O)N4C)cc2C(=O)N(C)c2cccnc21` [Compound 803], the pIC50 (HIV-1 RT wild type (WT)) was > 7.00, the pIC50 [1] was > 7.00 and the pEC50 [2] was > 7.00. The pEC50 [3] was > 7.00.

In the case of `CCN1c2ncc(CCOc3cccc4c3C=CS(=O)(=O)N4C)cc2C(=O)Nc2c(C)ccnc21` [Compound 804], the pIC50 (HIV-1 RT wild type (WT)) was > 7.00, the pIC50 [1] was > 7.00 and the pEC50 [2] was > 7.00. For the same molecule, the pEC50 [3] was > 7.00.

`CCN1c2ncc(CCOc3cccc4c3C=CS(=O)(=O)N4CCCC(=O)O)cc2C(=O)N(C)c2cccnc21` [Compound 809] was tested, and the pIC50 (HIV-1 RT wild type (WT)) was > 7.00, the pIC50 [1] was 6.00 to 7.00 and the pEC50 [2] was > 7.00. The pEC50 [3] was > 7.00.
